Reference: the NIST ThermoML archive (doi:10.1016/j.fluid.2014.09.014)
Numbers after ± are expanded uncertainties.

Assay: refractive index (other wavelength) (dimensionless); xn = mol fraction of the nth substance listed
Details: 308.15 K, 101 kPa, Liquid, Standard Abbe refractometry

CC(C)OC(C)C [diisopropyl ether] + CO
refractive index
Details	Wavelength=40.47 nm	Wavelength=435.8 nm	Wavelength=486.1 nm	Wavelength=546.1 nm	Wavelength=587.6 nm	Wavelength=589.3 nm	Wavelength=632.8 nm
x2 = 0	–	1.36739 ± 0.00044	1.36407 ± 0.00044	1.36127 ± 0.00043	1.36127 ± 0.00043	1.35983 ± 0.00043	1.35853 ± 0.00043
x2 = 0.0423	–	–	1.36395 ± 0.00043	1.36116 ± 0.00043	1.35972 ± 0.00043	1.35967 ± 0.00043	1.35842 ± 0.00043
x2 = 0.0424	–	1.36729 ± 0.00043	1.36404 ± 0.00043	1.36107 ± 0.00043	1.35977 ± 0.00043	1.35973 ± 0.00043	1.35859 ± 0.00043
x2 = 0.082	–	1.36727 ± 0.00042	1.36394 ± 0.00042	1.36114 ± 0.00042	1.35971 ± 0.00042	1.35966 ± 0.00042	1.35842 ± 0.00042
x2 = 0.0822	1.37037 ± 0.00042	1.36742 ± 0.00042	1.36409 ± 0.00042	1.3613 ± 0.00042	1.35986 ± 0.00042	1.3598 ± 0.00042	1.35855 ± 0.00042
x2 = 0.1171	1.37018 ± 0.00041	1.36725 ± 0.00041	1.36394 ± 0.00041	1.36113 ± 0.00041	1.3597 ± 0.00041	1.35965 ± 0.00041	1.35843 ± 0.00041
x2 = 0.1271	1.37021 ± 0.00041	1.36728 ± 0.00041	1.36394 ± 0.00041	1.36115 ± 0.00041	1.35972 ± 0.00041	1.35966 ± 0.00041	1.35843 ± 0.00041
x2 = 0.1827	1.36993 ± 0.0004	1.367 ± 0.0004	1.36368 ± 0.0004	1.3609 ± 0.0004	1.35947 ± 0.0004	1.35942 ± 0.0004	1.35818 ± 0.0004
x2 = 0.2162	1.36973 ± 0.0004	1.36681 ± 0.0004	1.36351 ± 0.0004	1.36071 ± 0.0004	1.35928 ± 0.0004	1.35923 ± 0.0004	1.35801 ± 0.0004
x2 = 0.251	1.36934 ± 0.0004	1.36642 ± 0.00039	1.36312 ± 0.00039	1.36037 ± 0.00039	1.35892 ± 0.00039	1.35889 ± 0.00039	1.35764 ± 0.00039
x2 = 0.3298	1.36925 ± 0.00038	1.36633 ± 0.00038	1.36304 ± 0.00038	1.36029 ± 0.00038	1.35886 ± 0.00038	1.35881 ± 0.00038	1.35757 ± 0.00038
x2 = 0.3577	1.36902 ± 0.00038	1.36611 ± 0.00038	1.36275 ± 0.00038	1.36006 ± 0.00038	1.35865 ± 0.00038	1.35856 ± 0.00038	1.35731 ± 0.00038
x2 = 0.4497	1.36699 ± 0.00037	1.36412 ± 0.00037	1.36085 ± 0.00037	1.35815 ± 0.00037	1.35673 ± 0.00037	1.35668 ± 0.00037	1.35545 ± 0.00037
x2 = 0.4525	1.36743 ± 0.00037	1.36455 ± 0.00037	1.36128 ± 0.00037	1.35854 ± 0.00037	1.35714 ± 0.00037	1.35709 ± 0.00037	1.35586 ± 0.00037
x2 = 0.522	1.36511 ± 0.00035	1.3623 ± 0.00035	1.35907 ± 0.00035	1.35635 ± 0.00035	1.35495 ± 0.00035	1.3549 ± 0.00035	1.3537 ± 0.00035
x2 = 0.5543	1.36433 ± 0.00035	1.36152 ± 0.00035	1.35831 ± 0.00035	1.35561 ± 0.00035	1.35422 ± 0.00035	1.35417 ± 0.00035	1.35297 ± 0.00035
x2 = 0.609	1.36183 ± 0.00034	1.35906 ± 0.00034	1.35589 ± 0.00034	1.35321 ± 0.00034	1.35182 ± 0.00034	1.35177 ± 0.00034	1.35057 ± 0.00034
x2 = 0.6529	1.36027 ± 0.00034	1.35752 ± 0.00034	1.35437 ± 0.00034	1.35171 ± 0.00034	1.35032 ± 0.00034	1.35027 ± 0.00034	1.34908 ± 0.00034
x2 = 0.7504	1.35626 ± 0.00033	1.35356 ± 0.00033	1.35046 ± 0.00033	1.34787 ± 0.00033	1.34649 ± 0.00033	1.34644 ± 0.00033	1.34527 ± 0.00033
x2 = 0.804	1.35193 ± 0.00033	1.34931 ± 0.00033	1.34626 ± 0.00033	1.34371 ± 0.00033	1.34236 ± 0.00033	1.34231 ± 0.00033	1.34115 ± 0.00033
x2 = 0.807	1.3517 ± 0.00033	1.34907 ± 0.00033	1.34606 ± 0.00033	1.3435 ± 0.00033	1.34213 ± 0.00033	1.34208 ± 0.00033	1.34093 ± 0.00033
x2 = 0.8727	1.34787 ± 0.00032	1.3453 ± 0.00032	1.34228 ± 0.00032	1.33978 ± 0.00032	1.33843 ± 0.00032	1.33838 ± 0.00032	1.33724 ± 0.00032
x2 = 0.9233	1.33956 ± 0.00033	1.33712 ± 0.00033	1.33421 ± 0.00033	1.33175 ± 0.00033	1.33046 ± 0.00033	1.33042 ± 0.00033	1.32933 ± 0.00033
x2 = 0.9253	1.34157 ± 0.00033	1.33909 ± 0.00033	1.33616 ± 0.00033	1.33368 ± 0.00033	1.33239 ± 0.00033	1.33234 ± 0.00033	1.33125 ± 0.00033
x2 = 0.9527	1.33839 ± 0.00032	1.33598 ± 0.00032	1.33306 ± 0.00032	1.33062 ± 0.00032	1.32932 ± 0.00032	1.32928 ± 0.00032	–
x2 = 0.9773	1.33485 ± 0.00032	1.3325 ± 0.00032	1.3296 ± 0.00032	1.32717 ± 0.00032	1.32591 ± 0.00032	1.32586 ± 0.00032	–
x2 = 0.989	1.33356 ± 0.00032	1.33124 ± 0.00032	1.32836 ± 0.00032	1.32594 ± 0.00032	1.32469 ± 0.00032	1.32465 ± 0.00032	–
x2 = 0.9964	1.33249 ± 0.00032	1.33018 ± 0.00032	1.32731 ± 0.00032	1.32489 ± 0.00032	1.32366 ± 0.00032	1.32361 ± 0.00032	–
